In patent US9862707B2, “TrkA kinase inhibitors, compositions and methods thereof” (Merck Sharp & Dohme Corp., priority 2014, dated 2018):

Target: human TrkA receptor (Homo sapiens (Human), UniProt P04629)
Assay: TrkA functional activity, DiscoverX PathHunter assay
Assay type: cell-based
Conditions: U2OS cells expressing human TrkA-PK, Shc1-EA and p75NTR; compound 1 h, then NGF at ~80% of maximal response for 3 h; luminescence
Protocol: TrkA functional activity was measured using a DiscoverX PathHunter assay. In this assay, U2OS cells express the human TrkA receptor as a fusion with the weakly complementing fragment of B-galactosidase, which DiscoverX calls “Prolink (PK)”; additionally, Shc1 is fused with a larger fragment, which is called “Enzyme Acceptor (EA)”. Activation of the TrkA receptor, upon NGF addition, results in the kinase domain being phosphorylated, resulting in subsequent recruitment of Shc1-EA protein. That recruitment results in an active B-galactosidase enzyme that is detected by addition of a chemiluminescent substrate. The human p75^NTR protein was also expressed as a co-receptor for NGF.
All reagents were purchased from DiscoverX, except for the receptor agonists (NGF, BDNF, NT3) which were purchased from Peprotech. Cells were expanded and frozen into cryovials, and stored in the vapor phase of liquid nitrogen, and thawed immediately before use. Thawed cells were added to a 384-well plate at 7500 cells/well, and allowed to incubate overnight. Compound at various concentrations was added the following morning and allowed to incubate on cells for 1 h. Then, NGF was added at a concentration sufficient to elicit ˜80% of a maximal response and allowed to incubate for 3 h at ambient temperature. DiscoverX PathHunter detection reagent was then added and the plate was further incubated for 1 h in the dark. The plate was then read via luminescence on the Perkin Elmer Envision.

human TrkA receptor, sequence (P04629 33-796): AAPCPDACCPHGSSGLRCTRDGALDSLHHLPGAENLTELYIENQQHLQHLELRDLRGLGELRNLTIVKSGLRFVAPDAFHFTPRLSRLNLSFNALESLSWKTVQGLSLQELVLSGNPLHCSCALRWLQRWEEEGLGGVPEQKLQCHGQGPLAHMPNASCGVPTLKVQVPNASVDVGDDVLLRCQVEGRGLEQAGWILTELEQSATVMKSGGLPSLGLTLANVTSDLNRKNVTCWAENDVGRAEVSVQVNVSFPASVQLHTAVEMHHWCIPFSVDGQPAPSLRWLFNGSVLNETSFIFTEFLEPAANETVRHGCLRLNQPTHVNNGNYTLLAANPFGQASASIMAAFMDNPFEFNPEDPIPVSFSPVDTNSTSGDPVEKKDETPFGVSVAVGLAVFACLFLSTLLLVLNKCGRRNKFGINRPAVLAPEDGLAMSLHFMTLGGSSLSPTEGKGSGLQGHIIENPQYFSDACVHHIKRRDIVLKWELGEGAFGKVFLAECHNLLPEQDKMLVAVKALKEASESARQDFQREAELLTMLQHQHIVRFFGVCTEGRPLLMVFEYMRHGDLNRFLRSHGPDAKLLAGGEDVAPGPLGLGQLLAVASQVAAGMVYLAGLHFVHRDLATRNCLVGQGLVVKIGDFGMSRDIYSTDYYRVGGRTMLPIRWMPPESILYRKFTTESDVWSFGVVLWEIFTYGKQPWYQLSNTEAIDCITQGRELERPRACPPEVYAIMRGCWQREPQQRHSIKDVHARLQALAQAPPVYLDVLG

Row | SMILES | IC50
1 | Cn1ccc(-c2cc(C(=O)Nc3c4cc(CO)ccc4nn3-c3ccccc3)ccc2C(F)(F)F)n1 [Compound 10, N-(5-(Hydroxymethyl)-2-phenyl-2H-indazol-3-yl)-3-(1-methyl-1H-pyrazol-3-yl)-4-(trifluoromethyl)benzamide] | 0.84 nM
2 | Cn1ccc(-c2cc(C(=O)Nc3c4ncccc4nn3-c3ccccc3)c(F)cc2C(F)(F)F)n1 [Compound 5, 2-fluoro-5-(1-methyl-1H-pyrazol-3-yl)-N-(2-phenyl-2H-pyrazolo[4,3-b]pyridin-3-yl)-4-(trifluoromethyl)benzamide] | 0.66 nM
3 | O=C(Nc1c2nc(CO)ccc2nn1-c1ccccc1)c1cc(-c2ncccn2)c(C(F)(F)F)cc1Cl [Compound 17, 2-chloro-N-[5-(hydroxymethyl)-2-phenyl-2H-pyrazolo[4,3-b]pyridin-3-yl]-5-pyrimidin-2-yl-4-(trifluoromethyl)benzamide] | 18 nM
4 | NC(=O)c1ccc2c(NC(=O)c3cc(-c4ccccn4)c(C(F)(F)F)cc3F)n(-c3ccccc3)nc2c1 [Compound 81, 3-({[2-fluoro-5-pyridin-2-yl-4-(trifluoromethyl)phenyl]carbonyl}amino)-2-phenyl-2H-indazole-6-carboxamide] | 2.9 nM
